{"source": "patent US8455440B2", "about": "“Combination anticoagulant therapy with a compound that acts as a factor Xa inhibitor” (Millennium Pharmaceuticals, Inc., priority 2007, dated 2013)", "key": {"[1]": {"molecular_target": "T1, factor Xa (Bos taurus, UniProt P00743)", "T1 construct": "purchased Diapharma COATEST LMW Heparin", "T1 sequence (P00743 234-492 limits assumed)": "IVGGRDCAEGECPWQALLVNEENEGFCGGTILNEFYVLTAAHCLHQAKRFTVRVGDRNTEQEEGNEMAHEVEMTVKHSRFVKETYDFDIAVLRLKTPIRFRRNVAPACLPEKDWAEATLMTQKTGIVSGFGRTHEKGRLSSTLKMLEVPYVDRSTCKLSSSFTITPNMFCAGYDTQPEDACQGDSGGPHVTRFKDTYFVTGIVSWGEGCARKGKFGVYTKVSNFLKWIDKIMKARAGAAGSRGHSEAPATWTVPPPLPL", "T1 sequence (P00743 41-180 partner limits assumed)": "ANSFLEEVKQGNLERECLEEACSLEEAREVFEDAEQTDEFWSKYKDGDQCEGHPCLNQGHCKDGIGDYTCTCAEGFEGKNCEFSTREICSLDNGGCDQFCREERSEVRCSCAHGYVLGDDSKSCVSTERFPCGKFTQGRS", "assay": "Anti-factor Xa unit assay", "assay_type": "biochemical, human", "details": "total knee replacement patients, 15 mg or 40 mg oral twice a day", "description": "The anti-factor Xa (anti-fXa) assay was adapted from a commercial kit (Diapharma COATEST LMW Heparin) and modified to a 96-well format. A low molecular weight heparin, dalteparin, included in the kit was used to construct a standard curve according to the manufacture's instruction using pooled platelets poor plasma. All samples and standards were assayed in duplicate. The limit of quantitation was 0.05 U/mL and results below 0.05 U/mL were reported as below the limit of quantitation. The upper limit of measurement for the plate assay was 1.0 U/mL and samples with anti-factor Xa units higher than 1.0 U/mL were re-assayed after dilution. The coefficient of variation (CV) for both standards and clinical samples were 10%."}, "[2]": {"system": "Rhesus Monkeys", "assay": "Template bleed times in rhesus monkeys", "assay_type": "in vivo, rhesus monkey", "details": "for Template Bleed Times / Template Bleed Times, Mean of all times / Template Bleed Times, Mean per animal / Template Bleed Times, Mean for time points 1-24 hr (post-Compound A dosing): in min (unit assumed); for Template Bleed Times, Mean of animals: mean of two animals; for Template Bleed Times, Mean of all times: all times (0-24 hr)", "description": "Injectable heparins are often dose limited by their bleeding consequences which result in a narrow therapeutic window for treatment effects."}, "[3]": {"system": "clotting times (prothrombin time, PT and activated partial thromboplastin times, aPTT)", "assay": "Ex vivo clotting times (PT, aPTT) in the rat thrombosis model", "description": "(§1) In this experiment, the ability of Compound A to maintain vessel patency under arterial flow conditions in ferric chloride induced thrombosis in rat carotid artery is compared to that achieved by clopidogrel. Compound A was administered by intravenous infusions and clopidogrel was dosed orally for three days. Ex vivo platelet aggregation induced by 10 μM ADP and clotting times (prothrombin time, PT and activated partial thromboplastin times, aPTT) were measured over the experimental time course (90 min) in all animals.\nas §1, with “The combination effect of an anticoagulant and anti-platelet agent, aspirin, was investigated in an in vivo model of thrombosis. […] In” for “In”, “aspirin.” for “clopidogrel.”, “aspirin” for “clopidogrel”, “administered as an intravenous bolus approximately 30 min prior to the start of the experiment.” for “dosed orally for three days.”, “μg/mL of collagen” for “μM ADP”"}, "[4]": {"system": "thrombin generation", "assay": "Thrombin generation assay in platelet rich plasma (PRP)", "assay_type": "biochemical, human", "description": "PRP and PPP were prepared by spinning the anticoagulated blood at ˜100×g or 1000×g for 20 minutes, respectively, at room temperature. Platelet counts in PRP were adjusted with homologous PPP to about 200,000 platelets/μL. For thrombin generation in 100 μL reaction mixture, 75 μL PRP was first mixed with CaCl2, convulxin, and Z-Gly-Gly-Arg-aminomethylcoumarin (Z-GGR-AMC, a thrombin fluorogenic substrate) for 3 minutes at 37° C., followed by adding tissue factor (Innovin, Dade Behring) to initiate the generation of thrombin. A typical reaction mixture contained 15 mM Ca^2+, 0.1 μg/mL convulxin, 100 μM Z-GGR-AMC, and 0.1 nM TF (tissue factor) (Innovin). Thrombin formation was monitored continuously at 37° C. by a fluorometric plate reader (Molecular Devices) measuring the relative fluorescence units (RFU). Inhibitors were pre-incubated with plasma for 20 minutes at room temperature before adding CaCl2 and convulxin.\nNon-ASA represents result from donors free of aspirin. ASA represents results from donors taken aspirin for at least three days. % Inhibition was calculated by normalization of mean RFU (n=5) to Non-ASA at 0 nM Compound A."}, "[5]": {"system": "ferric chloride induced thrombosis in rat carotid artery", "assay": "Ferric chloride induced thrombosis in rat carotid artery", "assay_type": "in vivo", "details": "for % Did not occlude (inhibition of rat thrombosis) / Number of animals without occlusion: intravenous infusion; for Number of animals without occlusion: 10 animals; for time to occlusion: animals that had vessel occlusion"}, "[6]": {"details": "Compound A 0.03 μM, aspirin 3 mg/kg, or both"}}, "note": "“And” between values parts separate entries of the source, which are not always exact repeats. Equal entries are not always repeated. Marks after values point to notes of the source that are not given here."}
{"smiles": "COc1ccc(NC(=O)c2ccc(C(=N)N(C)C)cc2)c(C(=O)Nc2ccc(Cl)cn2)c1", "note": "[Compound A, [2-({4-[(dimethylamino)iminomethyl]phenyl}carbonylamino)-5-methoxyphenyl]-N-(5-chloro(2-pyridyl))carboxamide]", "values": [{"measurement": "effect on anti-factor Xa levels", "setting": "[1]", "value": "dose- and concentration-dependent effect"}, {"measurement": "Template Bleed Times", "setting": "[2]; 4.0 mg/kg, 1 hr, individual animals (Rhesus # 30675, 30973)", "value": "1.50 and 3.75"}, {"measurement": "Template Bleed Times, Mean of animals", "setting": "[2]; 4.0 mg/kg, 1 hr", "value": 2.63, "unit": "min"}, {"measurement": "Template Bleed Times", "setting": "[2]; 4.0 mg/kg, 2 hr, individual animals (Rhesus # 30675, 30973)", "value": 1.50}, {"measurement": "Template Bleed Times, Mean of animals", "setting": "[2]; 4.0 mg/kg, 2 hr", "value": 1.5, "unit": "min"}, {"measurement": "Template Bleed Times", "setting": "[2]; 4.0 mg/kg, 3 hr, individual animals (Rhesus # 30675, 30973)", "value": 1.50}, {"measurement": "Template Bleed Times, Mean of animals", "setting": "[2]; 4.0 mg/kg, 3 hr", "value": 1.5, "unit": "min"}, {"measurement": "Template Bleed Times", "setting": "[2]; 4.0 mg/kg, 8 hr, individual animals (Rhesus # 30675, 30973)", "value": 2.00}, {"measurement": "Template Bleed Times, Mean of animals", "setting": "[2]; 4.0 mg/kg, 8 hr", "value": 2, "unit": "min"}, {"measurement": "Template Bleed Times", "setting": "[2]; 4.0 mg/kg, 24 hr, individual animals (Rhesus # 30675, 30973)", "value": 2.50}, {"measurement": "Template Bleed Times, Mean of animals", "setting": "[2]; 4.0 mg/kg, 24 hr", "value": 2.5, "unit": "min"}, {"measurement": "Template Bleed Times, Mean of all times", "setting": "[2]; 4.0 mg/kg", "value": "1.98*"}, {"measurement": "Template Bleed Times, Mean per animal", "setting": "[2]; 4.0 mg/kg, mean over time points of each animal (Rhesus # 30675, 30973)", "value": "1.80 and 2.25"}, {"measurement": "Template Bleed Times, Mean for time points 1-24 hr (post-Compound A dosing)", "setting": "[2]; 4.0 mg/kg", "value": "2.03**"}, {"measurement": "Template Bleed Times", "setting": "[2]; 7.5 mg/kg, 1 hr, individual animals (Rhesus # 25285, 27678)", "value": "3.00 and 2.00"}, {"measurement": "Template Bleed Times, Mean of animals", "setting": "[2]; 7.5 mg/kg, 1 hr", "value": 2.5, "unit": "min"}, {"measurement": "Template Bleed Times", "setting": "[2]; 7.5 mg/kg, 2 hr, individual animals (Rhesus # 25285, 27678)", "value": "2.50 and 1.75"}, {"measurement": "Template Bleed Times, Mean of animals", "setting": "[2]; 7.5 mg/kg, 2 hr", "value": 2.13, "unit": "min"}, {"measurement": "Template Bleed Times", "setting": "[2]; 7.5 mg/kg, 3 hr, individual animals (Rhesus # 25285, 27678)", "value": "2.50 and 2.00"}, {"measurement": "Template Bleed Times, Mean of animals", "setting": "[2]; 7.5 mg/kg, 3 hr", "value": 2.25, "unit": "min"}, {"measurement": "Template Bleed Times", "setting": "[2]; 7.5 mg/kg, 8 hr, individual animals (Rhesus # 25285, 27678)", "value": "4.00 and 2.50"}, {"measurement": "Template Bleed Times, Mean of animals", "setting": "[2]; 7.5 mg/kg, 8 hr", "value": 3.25, "unit": "min"}, {"measurement": "Template Bleed Times", "setting": "[2]; 7.5 mg/kg, 24 hr, individual animals (Rhesus # 25285, 27678)", "value": 2.50}, {"measurement": "Template Bleed Times, Mean of animals", "setting": "[2]; 7.5 mg/kg, 24 hr", "value": 2.5, "unit": "min"}, {"measurement": "Template Bleed Times, Mean of all times", "setting": "[2]; 7.5 mg/kg", "value": "2.50*"}, {"measurement": "Template Bleed Times, Mean per animal", "setting": "[2]; 7.5 mg/kg, mean over time points of each animal (Rhesus # 25285, 27678)", "value": "2.90 and 2.15"}, {"measurement": "Template Bleed Times, Mean for time points 1-24 hr (post-Compound A dosing)", "setting": "[2]; 7.5 mg/kg", "value": "2.53**"}, {"measurement": "bleeding times", "setting": "[2]; supra-therapeutic doses (7 to 35 times greater than the 0.21 mg/kg to 0.57 mg/kg human therapeutic doses)", "value": "did not extend of bleeding times"}, {"measurement": "bleeding time in monkeys", "setting": "[2]; therapeutic levels, plasma concentrations between 5 to 25 ng/mL", "value": "did not cause extension of bleeding"}, {"measurement": "PT ratio", "setting": "[3]; 0.03 μM Compound A", "value": 1.08}, {"measurement": "PT ratio", "setting": "[3]; 0.1 μM Compound A", "value": 1.19}, {"measurement": "PT ratio", "setting": "[3]; 0.3 μM Compound A", "value": 1.33}, {"measurement": "APTT Ratio", "setting": "[3]; [6]", "value": 1.08}, {"measurement": "PT ratio", "setting": "[3]; [6]", "value": 1.07}, {"measurement": "change in PT", "setting": "[3]; therapeutic dose of the single agent", "value": 33, "unit": "%"}, {"measurement": "% Inhibition of thrombin generation", "setting": "[4]; ASA donors, 7.8125 nM Compound A, normalized to Non-ASA at 0 nM", "value": 24.6, "unit": "%"}, {"measurement": "% Inhibition of thrombin generation", "setting": "[4]; ASA donors, 15.625 nM Compound A, normalized to Non-ASA at 0 nM", "value": 26.9, "unit": "%"}, {"measurement": "% Inhibition of thrombin generation", "setting": "[4]; ASA donors, 31.25 nM Compound A, normalized to Non-ASA at 0 nM", "value": 33.4, "unit": "%"}, {"measurement": "% Inhibition of thrombin generation", "setting": "[4]; ASA donors, 62.5 nM Compound A, normalized to Non-ASA at 0 nM", "value": 46.0, "unit": "%"}, {"measurement": "% Inhibition of thrombin generation", "setting": "[4]; ASA donors, 125 nM Compound A, normalized to Non-ASA at 0 nM", "value": 64.7, "unit": "%"}, {"measurement": "% Inhibition of thrombin generation", "setting": "[4]; ASA donors, 250 nM Compound A, normalized to Non-ASA at 0 nM", "value": 82.5, "unit": "%"}, {"measurement": "% Inhibition of thrombin generation", "setting": "[4]; ASA donors, 500 nM Compound A, normalized to Non-ASA at 0 nM", "value": 94.6, "unit": "%"}, {"measurement": "% Inhibition of thrombin generation", "setting": "[4]; Non-ASA donors, 7.8125 nM Compound A", "value": 3.2, "unit": "%"}, {"measurement": "% Inhibition of thrombin generation", "setting": "[4]; Non-ASA donors, 15.625 nM Compound A", "value": 5.1, "unit": "%"}, {"measurement": "% Inhibition of thrombin generation", "setting": "[4]; Non-ASA donors, 31.25 nM Compound A", "value": 12.2, "unit": "%"}, {"measurement": "% Inhibition of thrombin generation", "setting": "[4]; Non-ASA donors, 62.5 nM Compound A", "value": 25.2, "unit": "%"}, {"measurement": "% Inhibition of thrombin generation", "setting": "[4]; Non-ASA donors, 125 nM Compound A", "value": 55.1, "unit": "%"}, {"measurement": "% Inhibition of thrombin generation", "setting": "[4]; Non-ASA donors, 250 nM Compound A", "value": 81.1, "unit": "%"}, {"measurement": "% Inhibition of thrombin generation", "setting": "[4]; Non-ASA donors, 500 nM Compound A", "value": 96.0, "unit": "%"}, {"measurement": "% Did not occlude (inhibition of rat thrombosis)", "setting": "[5]; 0.03 μM Compound A", "value": 30, "unit": "%"}, {"measurement": "Number of animals without occlusion", "setting": "[5]; 0.03 μM Compound A", "value": 3}, {"measurement": "time to occlusion", "setting": "[5]; 0.03 μM Compound A", "value": 27.07}, {"measurement": "% Did not occlude (inhibition of rat thrombosis)", "setting": "[5]; 0.1 μM Compound A", "value": 60, "unit": "%"}, {"measurement": "Number of animals without occlusion", "setting": "[5]; 0.1 μM Compound A", "value": 6}, {"measurement": "time to occlusion", "setting": "[5]; 0.1 μM Compound A", "value": 52.66}, {"measurement": "% Did not occlude (inhibition of rat thrombosis)", "setting": "[5]; 0.3 μM Compound A", "value": 90, "unit": "%"}, {"measurement": "Number of animals without occlusion", "setting": "[5]; 0.3 μM Compound A", "value": 9}, {"measurement": "time to occlusion", "setting": "[5]; 0.3 μM Compound A", "value": 35.78}, {"measurement": "% DNO (inhibition of rat thrombosis)", "setting": "[5]; Compound A 0.03 μM iv infusion, aspirin 3 mg/kg iv bolus, or both", "value": 30, "unit": "%"}, {"measurement": "TTO (Time to occlusion)", "setting": "[5]; average for animals that occluded, Compound A 0.03 μM, aspirin 3 mg/kg, or both", "value": "27.07 ± 7.36", "unit": "min"}, {"measurement": "DNO (did not occlude)", "setting": "[5]; number of 10 animals, Compound A 0.03 μM iv infusion, aspirin 3 mg/kg iv bolus, or both", "value": 3}]}
